Paper PMC5521788, “In Vitro comparison of ^213Bi- and ^177Lu-radiation for peptide receptor radionuclide therapy” (PLoS ONE, 2017)

Legend:
BON cells = experiment: Clonogenic assay, BON cells; type: cell-based, human
Experimental: (§1) Before irradiation of the cells, 500 cells were seeded in 6-well plates (pre-coated with poly-l-lysine) 24 h before the experiment. […] After irradiation, internalization medium containing radioligand was removed. […] Every 2 or 3 d, medium was replaced by fresh culture medium. […] The 6-well plates containing colonies were scanned with a HP-scanner at 200 dpi. The colonies in each well were counted by a clonocounter. The survival was plotted as a function of absorbed dose and fitted to linear-quadratic (LQ) or linear-exponential curves. The cell absorbed dose during the incubation period was calculated with a dosimetry model of the 6-well plate, as described by Verwijnen et al.. The 3.5 cm diameter well cavity was modeled in the Monte Carlo radiation transport code Monte Carlo N-Particle […] (version 2.5.0, Los Alamos National Laboratory, USA) with homogeneously distributed radioactivity over the 2 mL volume aqueous liquid within the cavity.

CA20948 cells = experiment: Clonogenic assay, CA20948 cells; type: cell-based, rat
Experimental: as §1, with “cavity. […] The division the layers of the well were as followed; 18 layers of 100 μm and 8 layers of 25 μm at the bottom of the well. […] D (25μm←fluid)=Ãfluid(1)×S(25μm←fluid)=∫T0TAfluide^-λtdt×S(25μm←fluid) […] The dosimetry for the specific uptake of radioactivity in the cells was calculated with the multicellular dosimetry code MIRD cell. […] Initially 500 cells were plated over the 9.62 cm^2 surface of the well. For evenly distributed cells over the surface the mean inter-cell distance would be 770 μm. In reality the cells were more clustered to the center of the well. […] The number of disintegrations within each cell (or Time-Integrated Activity per cell ã) was calculated by integration of the decay function of ^177Lu and ^213Bi and its progeny over the 12 d irradiation time multiplied by the ƒint and ƒmem per cell. This assumes that ƒmem will remain bound to the cells and ƒint remains trapped in the cell over a period of 12 d.” for “cavity.”

O=C([O-])CN(CCN(CC(=O)[O-])CC(=O)[O-])CCN(CC(=O)[O-])CC(=O)[O-].[213Bi+3] [^213Bi-DTPA]
RBE at D10 compared to ^137Cs irradiation (BON cells): 1.8
LQ model parameter α (BON cells; 1 h exposure, colonies after 12 d, n = 3): 0.87±0.1 /Gy
D10 (absorbed dose of 10% survival) (BON cells; 1 h incubation, 12 d colony growth): 2.5 Gy
factor advantage in cell killing compared to ^177Lu-DOTATATE (CA20948 cells; 10% survival, CA20948 (abstract)): 6
RBE at D10 compared to ^137Cs irradiation (CA20948 cells; CA20948): 2.0
LQ model parameter α (CA20948 cells; CA20948, 1 h exposure, colonies after 12 d, n = 3): 0.74±0.08 /Gy
D10 (absorbed dose of 10% survival) (CA20948 cells; CA20948, 1 h incubation, 12 d colony growth): 2.6 Gy
RBE at 10% cell survival (CA20948 cells; in both low (BON) and high (CA20948) SSTR2 expressing cell lines): 1.5–2.0
